From PMC9784969, “SARS-CoV-2 Inhibitors Identified by Phenotypic Analysis of a Collection of Viral RNA-Binding Molecules” (Pharmaceuticals, 2022)
Like-named read-outs stand apart in the source and are kept apart here.

Assays:
ORF7b RNA = assay: ligand-based 1H NMR (1D, CPMG, wLOGSY); type: binding, SARS-CoV-2
3_SL1+2 RNA = type: binding
3_S2m RNA [1] = assay: ligand-based 1H NMR (1D, CPMG, wLOGSY); type: binding, SARS-CoV-2
ATTL RNA = assay: ligand-based 1H NMR (1D, CPMG, wLOGSY); type: binding, SARS-CoV-2
3_S2m RNA [2] = assay: RNA-based 1H NMR (TOCSY) titration; type: binding, SARS-CoV-2; details: RNA:ligand up to 1:4
Protocol: The RNA samples were previously diafiltrated into an aqueous solution containing 25 mM potassium phosphate (pH 6.2), 50 mM KCl and 0.1 mM EDTA, and the titration experiments were carried out at 27 °C using 50 μM RNA samples in 100% D2O. The 3_S2m titrations were duplicated at 25 °C using 120 μM RNA samples and additionally acquiring NOESY spectra (250 ms mixing time) at 1:0 and 1:4 ratios. For this system, the chemical shift perturbation analyses included 63 H1’, H2’, and aromatic 3_S2m resonances. The isolated 3_S2m hairpin was studied at two different temperatures (25 and 35 °C) using 120 and 500 μM RNA samples and similar TOCSY and NOESY (120 and 250 ms mixing times) experiments. […] The relaxation delay for NOESY and TOCSY acquisition was 2 and 1.5 s, respectively.

SARS-CoV-2 USA-WA1/2020 = assay: microbe, parasite or virus in culture; type: cell-based; details: Severe acute respiratory syndrome coronavirus 2, Vero C1008, 48 h, Vero E6 cells, MOI 0.025, two days; read-out: SARS-CoV-2 EC50
in vitro = details: human, uninfected 293T-ACE2 cells
5_SL2+3 RNA = assay: ligand-based 1H NMR (1D, CPMG, wLOGSY); type: binding, SARS-CoV-2
[3] = average of aliphatic protons, RNA:ligand 1:100 (clomiphene) or 1:50 (trim, qz2)
[4] = average of aromatic protons, RNA:ligand 1:100 (clomiphene) or 1:50 (trim, qz2)

Work on NCCCc1cn(C(c2ccccc2)(c2ccccc2)c2ccccc2)cn1 [trim] yielded a CPMG variation (ORF7b RNA; [3]) of 38.7%, an LB (ORF7b RNA; [3]) of 13.5% and an LOGSY factor (ORF7b RNA; [3]) of 103%. It also gave a CPMG variation (ORF7b RNA; [4]) of 30.2%, an LB (ORF7b RNA; [4]) of 4.23% and an LOGSY factor (ORF7b RNA; [4]) of 208%. For the same molecule, the CPMG variation (ORF7b RNA; trim peak A, RNA:ligand 1:50) was 34.9%, the LB (ORF7b RNA; trim peak A, RNA:ligand 1:50) was 15.8% and the LOGSY factor (ORF7b RNA; trim peak A, RNA:ligand 1:50) was 75.4%. The CPMG variation (ORF7b RNA; trim peak B, RNA:ligand 1:50) was 44.0%, the LB (ORF7b RNA; trim peak B, RNA:ligand 1:50) was 12.4% and the LOGSY factor (ORF7b RNA; trim peak B, RNA:ligand 1:50) was 132%. The CPMG variation (ORF7b RNA; trim peak C, RNA:ligand 1:50) was 18.3%, the LB (ORF7b RNA; trim peak C, RNA:ligand 1:50) was -3.43% and the LOGSY factor (ORF7b RNA; trim peak C, RNA:ligand 1:50) was 210%. It also gave a CPMG variation (ORF7b RNA; trim peak D, RNA:ligand 1:50) of 41.8%, an LB (ORF7b RNA; trim peak D, RNA:ligand 1:50) of 7.94% and an LOGSY factor (ORF7b RNA; trim peak D, RNA:ligand 1:50) of 218%. For the same molecule, the CPMG variation (ORF7b RNA; trim peak E, RNA:ligand 1:50) was 20.4%, the LB (ORF7b RNA; trim peak E, RNA:ligand 1:50) was 4.46% and the LOGSY factor (ORF7b RNA; trim peak E, RNA:ligand 1:50) was 196%. For the same molecule, the CPMG variation (3_SL1+2 RNA; [3]) was 18.3%, the LB (3_SL1+2 RNA; [3]) was 14.0% and the LOGSY factor (3_SL1+2 RNA; [3]) was 33.1%. For the same molecule, the CPMG variation (3_SL1+2 RNA; [4]) was 25.0%, the LB (3_SL1+2 RNA; [4]) was 10.2% and the LOGSY factor (3_SL1+2 RNA; [4]) was 87.9%. The CPMG variation (3_SL1+2 RNA; trim peak A, RNA:ligand 1:50) was 18.5%, the LB (3_SL1+2 RNA; trim peak A, RNA:ligand 1:50) was 11.8% and the LOGSY factor (3_SL1+2 RNA; trim peak A, RNA:ligand 1:50) was 32.1%. It also gave a CPMG variation (3_SL1+2 RNA; trim peak B, RNA:ligand 1:50) of 23.8%, an LB (3_SL1+2 RNA; trim peak B, RNA:ligand 1:50) of 15.1% and an LOGSY factor (3_SL1+2 RNA; trim peak B, RNA:ligand 1:50) of 34.2%. It also gave a CPMG variation (3_SL1+2 RNA; trim peak C, RNA:ligand 1:50) of 23.6%, an LB (3_SL1+2 RNA; trim peak C, RNA:ligand 1:50) of 7.46% and an LOGSY factor (3_SL1+2 RNA; trim peak C, RNA:ligand 1:50) of 80.8%. It also gave a CPMG variation (3_SL1+2 RNA; trim peak D, RNA:ligand 1:50) of 25.2%, an LB (3_SL1+2 RNA; trim peak D, RNA:ligand 1:50) of 9.70% and an LOGSY factor (3_SL1+2 RNA; trim peak D, RNA:ligand 1:50) of 92.6%. It also gave a CPMG variation (3_SL1+2 RNA; trim peak E, RNA:ligand 1:50) of 26.4%, an LB (3_SL1+2 RNA; trim peak E, RNA:ligand 1:50) of 14.1% and an LOGSY factor (3_SL1+2 RNA; trim peak E, RNA:ligand 1:50) of 90.5%. For the same molecule, the CPMG variation (3_S2m RNA [1]; [3]) was 15.7%, the LB (3_S2m RNA [1]; [3]) was 9.33% and the LOGSY factor (3_S2m RNA [1]; [3]) was 39.4%. The CPMG variation (3_S2m RNA [1]; [4]) was 24.0%, the LB (3_S2m RNA [1]; [4]) was 8.82% and the LOGSY factor (3_S2m RNA [1]; [4]) was 54.4%. It also gave a CPMG variation (3_S2m RNA [1]; trim peak A, RNA:ligand 1:50) of 15.8%, an LB (3_S2m RNA [1]; trim peak A, RNA:ligand 1:50) of 5.70% and an LOGSY factor (3_S2m RNA [1]; trim peak A, RNA:ligand 1:50) of 45.5%. It also gave a CPMG variation (3_S2m RNA [1]; trim peak B, RNA:ligand 1:50) of 22.1%, an LB (3_S2m RNA [1]; trim peak B, RNA:ligand 1:50) of 11.1% and an LOGSY factor (3_S2m RNA [1]; trim peak B, RNA:ligand 1:50) of 33.3%. It also gave a CPMG variation (3_S2m RNA [1]; trim peak C, RNA:ligand 1:50) of 22.2%, an LB (3_S2m RNA [1]; trim peak C, RNA:ligand 1:50) of 11.7% and an LOGSY factor (3_S2m RNA [1]; trim peak C, RNA:ligand 1:50) of 54.5%. The CPMG variation (3_S2m RNA [1]; trim peak D, RNA:ligand 1:50) was 24.2%, the LB (3_S2m RNA [1]; trim peak D, RNA:ligand 1:50) was 4.64% and the LOGSY factor (3_S2m RNA [1]; trim peak D, RNA:ligand 1:50) was 70.5%. It also gave a CPMG variation (3_S2m RNA [1]; trim peak E, RNA:ligand 1:50) of 26.4%, an LB (3_S2m RNA [1]; trim peak E, RNA:ligand 1:50) of 14.3% and an LOGSY factor (3_S2m RNA [1]; trim peak E, RNA:ligand 1:50) of 38.2%. The CPMG variation (ATTL RNA; [3]) was 11.7%, the LB (ATTL RNA; [3]) was 10.0% and the LOGSY factor (ATTL RNA; [3]) was 5.15%. The CPMG variation (ATTL RNA; [4]) was -12.7%, the LB (ATTL RNA; [4]) was 9.31% and the LOGSY factor (ATTL RNA; [4]) was 4.35%. It also gave a CPMG variation (ATTL RNA; trim peak A, RNA:ligand 1:50) of 8.20%, an LB (ATTL RNA; trim peak A, RNA:ligand 1:50) of 12.4% and an LOGSY factor (ATTL RNA; trim peak A, RNA:ligand 1:50) of 7.80%. The CPMG variation (ATTL RNA; trim peak B, RNA:ligand 1:50) was 17.6%, the LB (ATTL RNA; trim peak B, RNA:ligand 1:50) was 8.81% and the LOGSY factor (ATTL RNA; trim peak B, RNA:ligand 1:50) was 2.50%. For the same molecule, the CPMG variation (ATTL RNA; trim peak C, RNA:ligand 1:50) was -36.9%, the LB (ATTL RNA; trim peak C, RNA:ligand 1:50) was 1.54% and the LOGSY factor (ATTL RNA; trim peak C, RNA:ligand 1:50) was 4.56%. The CPMG variation (ATTL RNA; trim peak D, RNA:ligand 1:50) was 8.68%, the LB (ATTL RNA; trim peak D, RNA:ligand 1:50) was 7.54% and the LOGSY factor (ATTL RNA; trim peak D, RNA:ligand 1:50) was 4.51%. It also gave a CPMG variation (ATTL RNA; trim peak E, RNA:ligand 1:50) of -32.0%, an LB (ATTL RNA; trim peak E, RNA:ligand 1:50) of 23.3% and an LOGSY factor (ATTL RNA; trim peak E, RNA:ligand 1:50) of 3.98%. The “RNA chemical shift perturbations” value (3_S2m RNA [2]) was “strongest RNA chemical shift perturbations”, the EC50 (SARS-CoV-2 USA-WA1/2020) was 3.5 µM and the CC50 at 2 days (in vitro) was 23.5 µM. It also gave a CPMG variation (5_SL2+3 RNA; [3]) of 31.0%, an LB (5_SL2+3 RNA; [3]) of 19.1% and an LOGSY factor (5_SL2+3 RNA; [3]) of 49.4%. For the same molecule, the CPMG variation (5_SL2+3 RNA; [4]) was 39.0%, the LB (5_SL2+3 RNA; [4]) was 15.9% and the LOGSY factor (5_SL2+3 RNA; [4]) was 131.1%. The CPMG variation (5_SL2+3 RNA; trim peak A, RNA:ligand 1:50) was 32.9%, the LB (5_SL2+3 RNA; trim peak A, RNA:ligand 1:50) was 15.7% and the LOGSY factor (5_SL2+3 RNA; trim peak A, RNA:ligand 1:50) was 55.3%. For the same molecule, the CPMG variation (5_SL2+3 RNA; trim peak B, RNA:ligand 1:50) was 36.9%, the LB (5_SL2+3 RNA; trim peak B, RNA:ligand 1:50) was 20.8% and the LOGSY factor (5_SL2+3 RNA; trim peak B, RNA:ligand 1:50) was 43.4%. It also gave a CPMG variation (5_SL2+3 RNA; trim peak C, RNA:ligand 1:50) of 40.3%, an LB (5_SL2+3 RNA; trim peak C, RNA:ligand 1:50) of 14.9% and an LOGSY factor (5_SL2+3 RNA; trim peak C, RNA:ligand 1:50) of 131%. For the same molecule, the CPMG variation (5_SL2+3 RNA; trim peak D, RNA:ligand 1:50) was 38.6%, the LB (5_SL2+3 RNA; trim peak D, RNA:ligand 1:50) was 16.0% and the LOGSY factor (5_SL2+3 RNA; trim peak D, RNA:ligand 1:50) was 126%. For the same molecule, the CPMG variation (5_SL2+3 RNA; trim peak E, RNA:ligand 1:50) was 38.9%, the LB (5_SL2+3 RNA; trim peak E, RNA:ligand 1:50) was 16.7% and the LOGSY factor (5_SL2+3 RNA; trim peak E, RNA:ligand 1:50) was 135%.
